Results: patent US10835456B2, “Propyl gallate-containing vitamin preparations” (BASF SE, priority 2016, dated 2020)
One block for each molecule: values may come before it.

Tests used:
[1] = Stress test: stability in premix mixture, stored at 40° C. and 70% humidity for 4 weeks, retention of vitamin content; format: physicochemical; conditions: for Retention Active ingredient content after 4-week premix test: Table 3c; for Retention Canthaxanthin after 4-week test: Table 5c
Protocol: The stress test for the vitamins is configured such that specimens of 100 mg in each case of the formulation produced and 4 g of premix mixture are weighed into glass vessels. The premix mixture consists of 50% by weight of fine lime (particle size <1000 μm), 20% by weight of wheat bran (particle size <1000 μm), 20% by weight of 50% silica-supported choline chloride (particle size <1000 μm) and 10% by weight of trace element mixture (particle size 100-500 μm). The trace element mixture is composed of 46.78% by weight of FeSO4x7H2O (100-500 μm), 37.43% by weight of CuSO4x5H2O (100-500 μm), 11.79% by weight of ZnO (<500 μm), 3.61% by weight of MnO and 0.39% by weight of CoCO3. After addition of all ingredients, the specimens are mixed cautiously, with performance of the mixing mechanically or else by hand, and these specimens (A) are stored in a climate-controlled chamber at 40° C. and 70% humidity for 4 weeks. […]
For this purpose, specimens each of 100 mg of the formulation produced and 4 g of premix mixture are weighed out in glass vessels (50 mL glass vials). The premix mixture consists of 50% by weight of fine lime (particle size <1000 μm), 20% by weight of wheat bran (particle size <1000 μm), 20% by weight of 50% silica-supported choline chloride (particle size <1000 μm) and 10% by weight of trace element mixture (particle size 100-500 μm), said trace element mixture consisting of 46.78% by weight of FeSO4x7H2O (100-500 μm), 37.43% by weight of CuSO4x5H2O (100-500 μm), 11.79% by weight of ZnO (<500 μm), 3.61% by weight of MnO and 0.39% by weight of CoCO3. After addition of all ingredients, the specimens are mixed cautiously, where the mixing can be performed mechanically or else by hand, and these specimens (A) are stored in a climate-controlled chamber at 40° C. and 70% humidity for 4 weeks. An identical test is conducted with a comparative sample (B) which is of identical composition but which comprises, rather than propyl gallate, the same amount of ethoxyquin. […] The ratio of the contents after (A2), (B2) and before the storage (A1) and (B1) are used here to calculate the retention (A2/A1) or (B2/B1) of the samples. For the formulations of the invention, a quotient (A2/A1):(B2/B1) of at least 0.75 is determined here. Preferably, for the formulations of the invention, a quotient of at least 1 is obtained.
The stability of the particles thus produced was tested in a stress test. For this purpose, specimens each of 100 mg of the particles produced and 4 g of premix mixture were weighed into 50 mL glass bottles. The premix mixture consisted of 50% by weight of fine lime (particle size <1000 μm), 20% by weight of wheat bran (particle size <1000 μm), 20% by weight of 50% silica-supported choline chloride (particle size <1000 μm) and 10% by weight of trace element mixture (particle size 100-500 μm), and the trace element mixture of 46.78% by weight of FeSO4x7H2O (100-500 μm), 37.43% by weight of CuSO4x5H2O (100-500 μm), 11.79% by weight of ZnO (<500 μm), 3.61% by weight of MnO and 0.39% by weight of CoCO3. After addition of all ingredients, the specimens were carefully mixed by hand. These specimens were stored in a climate-controlled chamber at 40° C. and 70% air humidity for 4 weeks. […]

[2] = Particle size after dissolution in water by photon correlation spectroscopy (Malvern Zetasizer Nano ZSP); format: physicochemical; conditions: dry powder with propyl gallate added to the dispersion (Examples 1, 3b, 3c, 3d), PCS
Protocol: The particle size is determined by means of a Malvern Zetasizer Nano ZSP.
30 g of citranaxanthin were suspended in 240 g of isopropanol together with 1.1 g of ascorbyl palmitate and, with setting of the pressure-limiting valve to 30 bar, mixed continuously with 390 g of isopropanol in a mixing chamber A. At a metering rate of 6 L/h on the suspension side and of 9 L/h on the solvent side, a mixing temperature of 170° C. was established in the mixing chamber A. After a residence time of 0.3 second, the molecularly disperse solution was mixed in mixing chamber B with a solution of 32 g of gelatin, 71.4 g of sucrose and 50 g of glucose syrup in 4000 g of water at a throughput rate of 100 L/h. After the solvent had been removed under reduced pressure in a distillation apparatus, an active ingredient dispersion was obtained, to which 8 g of sunflower oil and 8 g of propyl gallate were added. The propyl gallate was predissolved here in 200 mL of water and adjusted to pH 7 with NaOH. Subsequently, the dispersion was converted to a stable, water-soluble dry powder by spray drying. After dissolution in water, by photon correlation spectroscopy (PCS), a particle size of 386 nm (standard deviation 142.5, polydispersity index PDI 0.185, D(95): 660 nm) was measured (Malvern Zetasizer Nano ZSP).

[3] = as above; format: physicochemical; conditions: dry powder of Example 3e, PCS
[4] = impurity from ethoxyquin preparation remaining in animal feed; cited from earlier work

Retention Active ingredient content after 4-week premix test ([1]; propyl gallate 0% by wt., dispersion): 6.7%
Retention Active ingredient content after 4-week premix test ([1]; propyl gallate 2% by wt., dispersion): 13.83%
Retention Active ingredient content after 4-week premix test ([1]; propyl gallate 4% by wt., dispersion): 42.7%
Retention Active ingredient content after 4-week premix test ([1]; propyl gallate 6% by wt., dispersion): 57.7%
Retention Active ingredient content after 4-week premix test ([1]; propyl gallate 8% by wt., dispersion): 64.1%
Retention Active ingredient content after 4-week premix test ([1]; propyl gallate 10% by wt., dispersion): 58.5%
Retention Active ingredient content after 4-week premix test ([1]; propyl gallate 12% by wt., dispersion): 54.3%
Retention Active ingredient content after 4-week test ([1]; Table 3e, ethoxyquin 4% by wt., dispersion): 28.6%
Retention Active ingredient content after 4-week test ([1]; Table 3e, propyl gallate 4% by wt., dispersion): 33.4%
Retention Active ingredient content after 4-week test ([1]; Table 3e, propyl gallate 4% by wt., dispersion (pH adjustment before spraying from pH 8.5 to pH 6.8 with H2SO4)): 39.8%
Retention Active ingredient content after 4-week test ([1]; Table 3e, propyl gallate 6% by wt., dispersion): 44.4%
Retention Active ingredient content after 4-week test ([1]; Table 3e, propyl gallate 8% by wt., dispersion): 43.4%
Retention Active ingredient content after 4-week test ([1]; Table 4b, D,L-α tocopherol 4% by wt. (in active ingredient phase) + propyl gallate 4% by wt. (in protective colloid phase)): 29.2%
Retention Active ingredient content after 4-week test ([1]; Table 4b, mixed tocopherol 4% by wt. (in active ingredient phase) + propyl gallate 4% by wt. (in protective colloid phase)): 57.5%
Retention Canthaxanthin after 4-week test ([1]; propyl gallate 0% by wt., mixed tocopherol 4% by wt.): 11%
Retention Canthaxanthin after 4-week test ([1]; propyl gallate 4% by wt., mixed tocopherol 0% by wt.): 42.7%
Retention Canthaxanthin after 4-week test ([1]; propyl gallate 4% by wt., mixed tocopherol 4% by wt.): 61.7%
particle size [2]: 280 nm
polydispersity index PDI [2]: 0.181
D(95) [3]: 683 nm
particle size [3]: 373 nm
polydispersity index PDI [3]: 0.203
Compound: CCOC(=O)/C(C)=C/C=C/C(C)=C/C=C/C=C(C)/C=C/C=C(C)/C=C/C1=C(C)CCCC1(C)C [C30 ester]

Compound: CCOc1ccc(N)cc1 [p-phenetidine]
mutagenicity [4]: possibly a mutagen
